Tests used:
251L = assay: Monolayer proliferation assay Protocol 1 (propidium iodide); type: cell-based, human; details: 4 days, mean of duplicate experiments
Procedure: (§1) In vitro evaluation of compounds for anticancer activity in a panel of 12 human tumour cell lines in a monolayer proliferation assay were carried out at the Oncotest Testing Facility, Institute for Experimental Oncology, Oncotest GmbH, Freiburg.
(§2) A modified propidium iodide assay was used to assess the effects of the test compound(s) on the growth of twelve human tumor cell lines (Dengler et al, 1995).
(§3) Briefly, cells were harvested from exponential phase cultures by trypsinization, counted and plated in 96 well flat-bottomed microtitre plates at a cell density dependent on the cell line (5-10.000 viable cells/well). […] Each concentration was plated in triplicate. 39-Desmethoxyrapamycin was applied in two concentrations (0.001 mM and 0.01 mM).
(§4) Growth inhibition was expressed as treated/control×100 (% TIC). For active compounds, IC50 & IC70 values were estimated by plotting compound concentration versus cell viability.
(§5) In vitro evaluation of 39-desmethoxyrapamycin for anticancer activity in a panel of 12 human tumour cell lines in a monolayer proliferation assay was carried out as described as Protocol 1 in the general methods above using a modified propidium iodide assay.

394NL = assay: as above; type: cell-based, human; details: 4 days, mean of duplicate experiments
Procedure: as §1, §2, §3, §4, §5

A498 = assay: as above; type: cell-based, human; details: 4 days, mean of duplicate experiments
Procedure: as §1, §2, §3, §4, §5

LNCAP = assay: as above; type: cell-based, human; details: 4 days, mean of duplicate experiments
Procedure: as §1, §2, §3, §4, §5

MCF7 = assay: as above; type: cell-based, human; details: 4 days, mean of duplicate experiments
Procedure: as §1, §2, §3, §4, §5

MDA468 = assay: as above; type: cell-based, human; details: 4 days, mean of duplicate experiments
Procedure: as §1, §2, §3, §4, §5

OVCAR3 = assay: as above; type: cell-based, human; details: 4 days, mean of duplicate experiments
Procedure: as §1, §2, §3, §4, §5

HOP-62 = assay: Monolayer assay Protocol 2 (SRB), high MDR-expressing cell lines; type: cell-based; details: Homo sapiens; NSCLC HOP-62, high MDR-expressing, 48 h
Procedure: (§6) The human tumor cell lines of the National Cancer Institute (NCI) cancer screening panel were grown in RPMI 1640 medium containing 5% fetal bovine serum and 2 mM L-glutamine (Boyd and Paull, 1995). Cells were inoculated into 96 well microtiter plates in 0.1 mL at plating densities ranging from 5,000 to 40,000 cells/well depending on the doubling time of individual cell lines. After cell inoculation, the microtiter plates were incubated at 37° C., 5% CO2, 95% air and 100% relative humidity for 24 h prior to addition of experimental drugs.
(§7) After 24 h, two plates of each cell line were fixed in situ with trichloroacetic acid (TCA), to represent a measurement of the cell population for each cell line at the time of drug addition (Tz). Experimental drugs were solubilized in dimethyl sulfoxide at 400-fold the desired final maximum test concentration and stored frozen prior to use. At the time of drug addition, an aliquot of frozen concentrate was thawed and diluted to twice the desired final maximum test concentration with complete medium containing 0.05 mg/mL gentamicin. Additional four, 10-fold or ½ log serial dilutions were made to provide a total of five drug concentrations plus control. […]
(§8) Following drug addition, the plates were incubated for an additional 48 h at 37° C., 5% CO2, 95% air, and 100% relative humidity. […] Bound stain was subsequently solubilized with 10 mM trizma base, and the absorbance was read on an automated plate reader at a wavelength of 515 nm. […] Using the seven absorbance measurements [time zero, (Tz), control growth, (C), and test growth in the presence of drug at the five concentration levels (Ti)], the percentage growth was calculated at each of the drug concentrations levels. Percentage growth inhibition was calculated as:
(§9) Three dose response parameters were calculated for each experimental agent. […] The drug concentration resulting in total growth inhibition (TGI) was calculated from Ti=Tz. […]

SW-620 = assay: as above; type: cell-based; details: Homo sapiens; Colon SW-620, high MDR-expressing, 48 h
Procedure: as §6, §7, §8, §9

UO-31 = assay: as above; type: cell-based; details: Homo sapiens; Renal UO-31, high MDR-expressing, 48 h
Procedure: as §6, §7, §8, §9

| Compound | Test/Control (%) at drug concentration (251L; 1 μM) [%] | Test/Control (%) at drug concentration (251L; 10 μM) [%] | Test/Control (%) at drug concentration (394NL; 1 μM) [%] | Test/Control (%) at drug concentration (394NL; 10 μM) [%] | Test/Control (%) at drug concentration (A498; A498, 1 μM) [%] | Test/Control (%) at drug concentration (A498; A498, 10 μM) [%] | Test/Control (%) at drug concentration (LNCAP; 1 μM) [%] | Test/Control (%) at drug concentration (LNCAP; 10 μM) [%] | Test/Control (%) at drug concentration (MCF7; MCF7, 1 μM) [%] | Test/Control (%) at drug concentration (MCF7; MCF7, 10 μM) [%] | Test/Control (%) at drug concentration (MDA468; MDA468, 1 μM) [%] | Test/Control (%) at drug concentration (MDA468; MDA468, 10 μM) [%] | Test/Control (%) at drug concentration (OVCAR3; OVCAR3, 1 μM) [%] | Test/Control (%) at drug concentration (OVCAR3; OVCAR3, 10 μM) [%] | GI50 (HOP-62) [nM] | GI50 (SW-620) [nM] | GI50 (UO-31) [nM] |
| --- | --- | --- | --- | --- | --- | --- | --- | --- | --- | --- | --- | --- | --- | --- | --- | --- | --- |
| CO[C@H]1C[C@@H]2CC[C@@H](C)[C@@](O)(O2)C(=O)C(=O)N2CCCC[C@H]2C(=O)O[C@H]([C@H](C)C[C@@H]2CC[C@@H](O)[C@H](OC)C2)CC(=O)[C@H](C)/C=C(\C)[C@@H](O)[C@@H](OC)C(=O)[C@H](C)C[C@H](C)/C=C/C=C/C=C/1C [Rapamycin] | 75.5 | 40 | 45 | 44 | 58.5 | 48.5 | 61 | 34 | 68.5 | 26.5 | 56.5 | 32 | 69 | 69.5 | 234 | 25100 | 100 |
| COC1CC2CCC(C)C(O)(O2)C(=O)C(=O)N2CCCCC2C(=O)OC(C(C)CC2CCC(O)CC2)CC(=O)C(C)C=C(C)C(O)C(OC)C(=O)C(C)CC(C)C=CC=CC=C1C (stereo not shown) [39-desmethoxyrapamycin] | 86 | 32.5 | 48 | 40.5 | 62.5 | 43.5 | 74.5 | 28.5 | 92.5 | 18.5 | 65 | 13.5 | 77.5 | 62 |  |  |  |

From patent publication US20100061994A1, “MEDICAL USES OF 39-DESMETHOXYRAPAMYCIN AND ANALOGUES THEREOF” (priority 2005, published 2010)
